Test results from ChEMBL document CHEMBL3351605, “Biased multicomponent reactions to develop novel bromodomain inhibitors” (J Med Chem, 2014).

Experiments:
[1] = Cytotoxicity against BRD4-NUT-expressing human NMC-797 cells assessed as reduction in cell viability after 3 days by ATPlite assay; assay type: functional, cell-based; settings: NMC-797, 72 h
[2] = target: T1, Bromodomain-containing protein 4 (Homo sapiens, UniProt O60885); experiment: Inhibition of BRD4 (unknown origin) by biotinylated-JQ1 based AlphaScreen BRD binding assay
[3] = target: T1, Bromodomain-containing protein 4; experiment: Binding affinity to BRD4 (unknown origin) by isothermal titration […]

IC50 [2] | Kd [3] | Compound | EC50 [1]
69.9 µM |  | COc1ccc(-c2cc(-c3ccc(-c4c(C)noc4C)cc3)nc(-c3ccccc3)n2)cc1 | > 100 µM
 |  | Cc1noc(C)c1-c1ccc(-c2nc3cnccn3c2NC(C)(C)C)nc1 | 8.29 µM
 |  | Cc1noc(C)c1-c1ccc(-c2nc3ccccn3c2NC(C)(C)C)cc1 | 2.04 µM
16.3 µM |  | CCOC(=O)C(C)N(Cc1ccc(-c2c(C)noc2C)cc1)C(=O)c1ccc(OC)cc1 (centres undefined) | 
1.7 µM |  | Cc1noc(C)c1-c1ccc(C=O)cc1 | 
> 100 µM |  | Cc1ccc2nc(-c3ccc(-c4c(C)noc4C)cc3)c(NCc3ccccc3)n2c1 | 
0.637 µM | 0.55 µM | Cc1noc(C)c1-c1ccc(-c2nc3cnccn3c2NC(C)(C)C)cc1 | 0.724 µM
 |  | COc1ccc(Nc2c(-c3ccc(-c4c(C)noc4C)cc3)nc3ccc(Cl)cn23)cc1 | 20.7 µM
 |  | Cc1noc(C)c1-c1cccc(C2Nc3ccccc3NC3=C2C(=O)OC3)c1 (centres undefined) | > 100 µM
 |  | COc1ccc(Nc2c(-c3ccc(-c4c(C)noc4C)cc3)nc3cc(OC)ncn23)cc1 | 11.8 µM
7.86 µM |  | COc1ccc(Nc2c(-c3ccc(-c4c(C)noc4C)cc3)nn3ccncc23)cc1 | 
 |  | CCOC(=O)[C@]1(C)NC(c2ccc(-c3c(C)noc3C)cc2)C2C(=O)N(CC)C(=O)C21 (some centres undefined) | 9.42 µM
 |  | COc1ccc(Nc2c(-c3ccc(-c4c(C)noc4C)cc3)nc3ccccn23)cc1 | 7.36 µM
 |  | Cc1noc(C)c1-c1ccc(-c2nc3ccccn3c2NC2CCCCC2)cc1 | 5.07 µM
 |  | Cc1noc(C)c1-c1ccc(-c2nc3cnccn3c2NCc2ccccc2)cc1 | 49.1 µM
 |  | Cc1noc(C)c1-c1ccc(-c2nc3cnccn3c2NC(C)C)cc1 | 0.494 µM
 |  | Cc1noc(C)c1-c1ccc(-c2nc3cnccn3c2NC(C)(C)C)cc1F | 12.8 µM
 |  | Cc1noc(C)c1-c1ccc(-c2nc3ccc(Cl)cn3c2NC(C)(C)C)cc1 | 2.19 µM
 |  | Cc1noc(C)c1-c1ccc(-c2nc3cnccn3c2NC(C)(C)C)cn1 | > 100 µM
 |  | Cc1noc(C)c1-c1ccc(-c2nc3ccc(Cl)cn3c2NCc2ccccc2)cc1 | 18.4 µM
 |  | CCCCN1C(=O)c2ccccc2NC(=O)C1c1ccc(-c2c(C)noc2C)c(OC)c1 (centres undefined) | 9.91 µM
